Data published in patent publication US20100120798A1, “SUBSTITUTED PIPERIDINES CONTAINING A HETEROARYLAMIDE OR HETEROARYLPHENYL MOIETY” (ASTEX THERAPEUTICS LIMITED, priority 2006, published 2010).
pIC50: −log10 of the molar value.

test system: not listed separately; test: In vitro MDA-MB-468 human breast adenocarcinoma GSK-3 phosphorylation assay; type: cell-based; conditions: mean IC50, MDA-MB-468 cells, 2 hours with compound, phospho-GSK-3β
From the text: This assay determines the ability of test compounds to inhibit phosphorylation of Serine-9 residue in Glycogen Synthase Kinase-3beta (GSK-3β) as a surrogate marker of cellular PKB (Akt) activity, as assessed using Acumen Explorer Fluorescent Plate-Reader technology. A MDA-MB-468 human breast adenocarcinoma cell line (LGC Promochem, Teddington, Middlesex, UK, Catalogue No. HTB-132) was routinely maintained in Dulbecco's modified Eagle's growth medium (DMEM; Invitrogen Limited, Paisley, UK Catalogue No. 11966-025) containing 10% heat-inactivated foetal calf serum (FCS; Sigma, Poole, Dorset, UK, Catalogue No. F0392) and 1% L-glutamine (Gibco, Catalogue No. 25030-024) at 37° C. with 5% CO2 up to a confluency of 70-90%.
For the phosphorylation assay, the cells were detached from the culture flask using Trypsin-EDTA (Invitrogen Limited, Catalogue No. 25300-062) and seeded into the wells of a black transparent-bottom Corning Costar Polystyrene 96 well plate (Fisher Scientific UK, Loughborough, Leicestershire, UK; Catalogue No. 3904 and DPS-130-020K) at a density of 5000 cells per well in 100 μl of complete growth media. The cells were incubated overnight at 37° C. with 5% CO2 to allow them to adhere.
On day 2, the cells were treated with test compounds and incubated for 2 hours at 37° C. with 5% CO2. Test compounds were prepared as 10 mM stock solutions in DMSO and dosed directly to required concentration into test wells using non-contact (acoustic dispensing of multiple 2.5 nl droplets directly into assay wells) ECHO dosing technology (Labcyte Inc. Sunnyvale, Calif., USA). Each plate contained control wells without test compound.
20 μl of fixing buffer (Phosphate Buffered Saline (PBS) containing 10% formaldehyde; Sigma; Catalogue No. F1635) was then added to each well to give a final well concentration 1.6%. Plates were then incubated for 30 minutes at room temperature prior to the fixative being removed. Each well was washed once with 250 μl of PBS and then 50 μl PBS added to each well. PBS was then aspirated and cells permeabilised and blocked by incubating each well with 50 μl of permeabilisation/blocking buffer (PBS containing 0.5% Tween 20 (Sigma; Catalogue No. P5927) and 5% Marvel Milk Powder (Andrews Pharmacy Ltd, Macclesfield, Cheshire, UK; Catalogue No. APC100199)) for 1 hour at room temperature prior to staining.
Following removal of Perm/Block buffer, 50 μl of primary anti-phospho-GSK-3β antibody (Cell Signalling Technology (New England Biolabs (Uk) Ltd.), Hitchin, Hertfordshire, UK; Catalogue No. 9336 diluted 1:400 in Blocking buffer (PBS containing 5% Marvel and 0.05% Tween/Polysorbate 20) was added to each well and incubated overnight at 4° C.
Each well was washed three times in 250 μl of wash buffer (PBS containing 0.05% polysorbate 20), and cells incubated for 1 hour at room temperature with 50 μl of secondary fluorescently-labelled anti-rabbit Alexa Fluor 488 antibody (Molecular Probes, Invitrogen Limited, Catalogue No. A11008) diluted 1:750 in blocking buffer. Plates were washed three times in 250 μl of wash buffer and stored containing 50 μl of PBS at 4° C. until required.
Plates were analysed using an Acumen Explorer Plate-reader to quantify level of fluorescent signal that represents quantity of phosphorylated-GSK-3β.
IC50 calculation—IC50 is the concentration of compound required to give 50% effect over the range of activity affected by the compound, between maximum (no compound) and minimum (excess level of compound) response control data. IC50 values were determined by fitting background corrected, dose response assay data to a 4 parameter logistic curve fit equation model with the minimum response set to zero. This was done using an in-house developed algorithm within the Origin graphing software package (OriginLab Corporation, Northampton, Mass., USA). […]

Compound	pIC50
Cn1cc(-c2cccc(C3(CN)CCN(c4ncnc5[nH]cnc45)CC3)c2)cn1 [Example 6, C-[4-[3-(1-Methyl-1H-pyrazol-4-yl)-phenyl]-1-(9H-purin-6-yl)-piperidin-4-yl]-methylamine]	7.51
Cc1csc(CNC(=O)C2(N)CCN(c3ncnc4[nH]ccc34)CC2)n1 [Example 40, 4-Amino-N-[(4-methyl-1,3-thiazol-2-yl)methyl]-1-(7H-pyrrolo[2,3-d]pyrimidin-4-yl)piperidine-4-carboxamide]	5.47
Cn1cc(-c2cccc(C3(CNC(=O)CN)CCN(c4ncnc5[nH]cnc45)CC3)c2)cn1 [Example 35, 2-amino-N-((4-(3-(1-methyl-1H-pyrazol-4-yl)phenyl)-1-(9H-purin-6-yl)piperidin-4-yl)methyl)acetamide]	5.89
NC1(C(=O)NCc2ccc(Cl)s2)CCN(c2ncnc3[nH]ccc23)CC1 [Example 39, 4-Amino-N-[(5-chlorothiophen-2-yl)methyl]-1-(7H-pyrrolo[2,3-d]pyrimidin-4-yl)piperidine-4-carboxamide]	6.52
Cn1cc(-c2cccc(C3(C(N)=O)CCN(c4ncnc5[nH]cnc45)CC3)c2)cn1 [Example 37, 4-[3-(1-methylpyrazol-4-yl)phenyl]-1-(9H-purin-6-yl)piperidine-4-carboxamide]	< 4.52
NC1(C(=O)NCc2csc(-c3ccccc3)n2)CCN(c2ncnc3[nH]ccc23)CC1 [Example 42, 4-Amino-N-[(2-phenyl-1,3-thiazol-4-yl)methyl]-1-(7H-pyrrolo[2,3-d]pyrimidin-4-yl)piperidine-4-carboxamide]	5.15
Cn1cc(-c2cccc(C3(CCCN)CCN(c4ncnc5[nH]cnc45)CC3)c2)cn1 [Example 34, 3-(4-(3-(1-methyl-1H-pyrazol-4-yl)phenyl)-1-(9H-purin-6-yl)piperidin-4-yl)propan-1-amine]	< 5.70
NCC1(C(=O)NCc2ccc(Cl)s2)CCN(c2ncnc3[nH]ccc23)CC1 [Example 22, 4-(Aminomethyl)-N-((5-chlorothiophen-2-yl)methyl)-1-(7H-pyrrolo[2,3-]pyrimidin-4-yl)piperidine-4-carboxamide]	7.80
Cn1cc(-c2cccc(C3(CO)CCN(c4ncnc5[nH]cnc45)CC3)c2)cn1 [Example 10, [4-[3-(1-Methyl-1H-pyrazol-4-yl)-phenyl]-1-(9H-purin-6-yl)-piperidin-4-yl]-methanol]	5.29
Cn1cc(-c2cccc(C3(CN)CCN(c4ncnc5[nH]cc(Br)c45)CC3)c2)cn1 [Example 28, (1-(5-bromo-7H-pyrrolo[2,3-d]pyrimidin-4-yl)-4-(3-(1-methyl-1H-pyrazol-4-yl)phenyl)piperidin-4-yl)methanamine]	8.14
Cn1cc(-c2cccc(C3(CN)CCN(c4ncnc5[nH]nc(Br)c45)CC3)c2)cn1 [Example 31, (1-(3-Bromo-1H-pyrazolo[3,4-d]pyrimidin-4-yl)-4-(3-(1-methyl-1H-pyrazol-4-yl)phenyl)piperidin-4-yl)methanamine]	7.66
NCC1(C(=O)NCc2cc3ccccc3[nH]2)CCN(c2ncnc3[nH]ccc23)CC1 [Example 26, N-((1H-Indol-2-yl)methyl)-4-(aminomethyl)-1-(7H-pyrrolo[2,3-d]pyrimidin-4-yl)piperidine-4-carboxamide]	7.64
Cn1cc(-c2cccc(C3(CN4CCCC4)CCN(c4ncnc5[nH]cnc45)CC3)c2)cn1 [Example 33, 6-(4-(3-(1-methyl-1H-pyrazol-4-yl)phenyl)-4-(pyrrolidin-1-ylmethyl)piperidin-1-yl)-9H-purine]	6.13

Second part, the molecule after the results:

pIC50	Compound
4.85	NC1(C(=O)NCc2cnc(-c3ccccc3)s2)CCN(c2ncnc3[nH]ccc23)CC1 [Example 46, 4-Amino-1-(7H-pyrrolo[2,3-d]pyrimidin-4-yl)-piperidine-4-carboxylic acid (2-phenyl-thiazol-5-ylmethyl)-amide]
7.19	NCC1(c2cccc(-c3ccncc3)c2)CCN(c2ncnc3[nH]ccc23)CC1 [Example 75, [4-(3-pyridin-4-ylphenyl)-1-(7H-pyrrolo[3,2-e]pyrimidin-4-yl)piperidin-4-yl]methanamine]
6.82	NCC1(c2cccc(-c3cn[nH]c3)c2)CCN(c2ncnc3[nH]ccc23)CC1 [Example 73, [4-[3-(1H-Pyrazol-4-yl)phenyl]-1-(7H-pyrrolo[3,2-e]pyrimidin-4-yl)piperidin-4-yl]methanamine]
7.23	Cn1cc(-c2cc(F)cc(C3(CN)CCN(c4ncnc5[nH]ccc45)CC3)c2)cn1 [Example 70, (4-(3-fluoro-5-(1-methyl-1H-pyrazol-4-yl)phenyl)-1-(7H-pyrrolo[2,3-d]pyrimidin-4-yl)piperidin-4-yl)methanamine]
6.42	NC1(C(=O)NCc2cc(Br)no2)CCN(c2ncnc3[nH]ccc23)CC1 [Example 48, 4-Amino-1-(7H-pyrrolo[2,3-d]pyrimidin-4-yl)-piperidine-4-carboxylic acid (3-bromo-isoxazol-5-ylmethyl)-amide]
6.48	NCC1(C(=O)Nc2ccc(F)cn2)CCN(c2ncnc3[nH]ccc23)CC1 [Example 60, 4-(aminomethyl)-N-(5-fluoropyridin-2-yl)-1-(7H-pyrrolo[2,3-d]pyrimidin-4-yl)piperidine-4-carboxamide]
7.32	NCC1(c2cccc(-c3ccoc3)c2)CCN(c2ncnc3[nH]ccc23)CC1 [Example 79, [4-(3-furan-3-ylphenyl)-1-(7H-pyrrolo[3,2-e]pyrimidin-4-yl)piperidin-4-yl]methanamine]
6.77	NCC1(C(=O)Nc2nc3ccccc3s2)CCN(c2ncnc3[nH]ccc23)CC1 [Example 63, 4-(Aminomethyl)-N-(benzo[d]thiazol-2-yl)-1-(7H-pyrrolo[2,3-d]pyrimidin-4-yl)piperidine-4-carboxamide]
7.33	NCC1(C(=O)Nc2ccc(C(F)(F)F)cn2)CCN(c2ncnc3[nH]ccc23)CC1 [Example 61, 4-(Aminomethyl)-1-(7H-pyrrolo[2,3-d]pyrimidin-4-yl)-N-(5-(trifluoromethyl)pyridin-2-yl)piperidine-4-carboxamide]
7.00	NCC1(c2cccc(-c3cnoc3)c2)CCN(c2ncnc3[nH]ccc23)CC1 [Example 80, [4-[3-(1,2-oxazol-4-yl)phenyl]-1-(7H-pyrrolo[3,2-e]pyrimidin-4-yl)piperidin-4-yl]methanamine]
7.46	NCC1(c2cccc(-c3cncnc3)c2)CCN(c2ncnc3[nH]ccc23)CC1 [Example 77, [4-(3-pyrimidin-5-ylphenyl)-1-(7H-pyrrolo[3,2-e]pyrimidin-4-yl)piperidin-4-yl]methanamine]
7.14	NCC1(C(=O)Nc2ccc(Cl)cn2)CCN(c2ncnc3[nH]ccc23)CC1 [Example 81, 4-(Aminomethyl)-N-(5-chloropyridin-2-yl)-1-(7H-pyrrolo[2,3-d]pyrimidin-4-yl)piperidine-4-carboxamide]
7.26	Cc1ccncc1-c1cccc(C2(CN)CCN(c3ncnc4[nH]ccc34)CC2)c1 [Example 74, [4-[3-(4-methylpyridin-3-yl)phenyl]-1-(7H-pyrrolo[3,2-e]pyrimidin-4-yl)piperidin-4-yl]methanamine]
6.51	Cc1cnc(NC(=O)C2(CN)CCN(c3ncnc4[nH]cnc34)CC2)s1 [Example 72, 4-(Aminomethyl)-N-(5-methylthiazol-2-yl)-1-(9H-purin-6-yl)piperidine-4-carboxamide]

target: hERG K+ ion channel (Homo sapiens, UniProt Q12809); test: hERG activity; type: cell-based; conditions: assay of Bridgland-Taylor et al.; read-out: IC50 against hERG K+ ion channel
Sequence (Q12809 whole entry): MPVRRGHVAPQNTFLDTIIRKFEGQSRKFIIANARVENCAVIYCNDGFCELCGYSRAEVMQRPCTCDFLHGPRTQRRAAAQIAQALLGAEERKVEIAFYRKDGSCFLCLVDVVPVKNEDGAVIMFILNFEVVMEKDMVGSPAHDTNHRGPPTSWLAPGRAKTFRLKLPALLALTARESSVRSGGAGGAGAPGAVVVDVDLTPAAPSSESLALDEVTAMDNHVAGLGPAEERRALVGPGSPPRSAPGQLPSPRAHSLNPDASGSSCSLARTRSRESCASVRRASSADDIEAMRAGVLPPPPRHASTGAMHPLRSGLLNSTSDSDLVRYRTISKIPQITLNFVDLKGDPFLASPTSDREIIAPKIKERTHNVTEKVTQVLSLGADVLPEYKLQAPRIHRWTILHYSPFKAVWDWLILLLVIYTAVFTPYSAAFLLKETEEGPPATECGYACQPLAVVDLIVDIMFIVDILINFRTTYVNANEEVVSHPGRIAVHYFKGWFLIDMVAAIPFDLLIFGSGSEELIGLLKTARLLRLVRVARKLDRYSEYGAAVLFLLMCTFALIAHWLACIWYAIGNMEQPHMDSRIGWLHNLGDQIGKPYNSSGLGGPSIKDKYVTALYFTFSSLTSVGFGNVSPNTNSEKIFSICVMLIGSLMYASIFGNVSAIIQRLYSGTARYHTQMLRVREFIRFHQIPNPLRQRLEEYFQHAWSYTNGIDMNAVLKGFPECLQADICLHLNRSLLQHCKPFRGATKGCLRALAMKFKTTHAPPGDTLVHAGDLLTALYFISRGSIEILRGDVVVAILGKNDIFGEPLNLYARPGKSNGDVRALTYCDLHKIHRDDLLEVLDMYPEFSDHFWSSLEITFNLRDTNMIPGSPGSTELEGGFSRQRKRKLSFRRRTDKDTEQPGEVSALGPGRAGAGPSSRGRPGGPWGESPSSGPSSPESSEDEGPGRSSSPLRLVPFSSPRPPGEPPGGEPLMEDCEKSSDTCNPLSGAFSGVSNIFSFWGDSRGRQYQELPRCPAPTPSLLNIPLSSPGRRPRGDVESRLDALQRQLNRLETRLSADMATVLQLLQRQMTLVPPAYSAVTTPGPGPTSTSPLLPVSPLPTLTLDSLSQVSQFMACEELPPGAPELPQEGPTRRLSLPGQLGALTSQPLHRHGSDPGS
From the text: The activity of compounds of the invention against the hERG K^+ ion channel can be determined using the assay described in the article by M. H. Bridgland-Taylor et al., Journal of Pharmcaological and Toxicological Methods, 54 (2006), 189-199.

Compound	pIC50
Cn1cc(-c2cccc(C3(CN)CCN(c4ncnc5[nH]cnc45)CC3)c2)cn1 [Example 6, C-[4-[3-(1-Methyl-1H-pyrazol-4-yl)-phenyl]-1-(9H-purin-6-yl)-piperidin-4-yl]-methylamine]	< 4.49
